Reference: patent publication US10280169B2, “Biaryl bruton's tyrosine kinase inhibitors” (BIOGEN MA INC., priority 2013, dated 2019)
Counter-ions that a name gives are not always drawn.

Experiments:
pBTK = biological target: T1, pBTK (Homo sapiens, UniProt Q06187); experiment: In vitro PD assay in whole blood (pBTK assay); assay type: cell-based; conditions: 30 min at 37° C.
T1 construct: Heparinized venous blood was purchased from Bioreclamation, Inc. or SeraCare Life Sciences; tissue Bioreclamation, Inc. or SeraCare Life Sciences; host or cells: heparinized venous whole blood
Experimental: Heparinized venous blood was purchased from Bioreclamation, Inc. or SeraCare Life Sciences and shipped overnight. Whole blood was aliquoted into 96-well plate and “spiked” with serial dilutions of test compound in DMSO or with DMSO without drug. The final concentration of DMSO in all wells was 0.1%. The plate was incubated at 37° C. for 30 min. Lysis buffer containing protease and phosphatase inhibitors was added to the drug-containing samples and one of the DMSO-only samples (+PPi, high control), while lysis buffer containing protease inhibitors was added to the other DMSO-only samples (−PPi, low control). All of the lysed whole blood samples were subjected to the total BTK capture and phosphotyrosine detection method described in Example 30. ECL values were graphed in Prism and a best-fit curve with restrictions on the maximum and minimum defined by the +PPi high and −PPi low controls was used to estimate the test compound concentration that results in 50% inhibition of ECL signal by interpolation.
In some instances where a compound tested has activity “D”, other structurally similar compounds beyond the measurable limits of the assay are not included in Table 2.

BTK = biological target: T2, BTK (Homo sapiens, UniProt Q06187); experiment: In vitro BTK kinase assay: BTK-POLYGAT-LS assay; assay type: biochemical; conditions: 10 uM ATP, read-out: IC50 (10 uMATP)
T2 construct: purchased Upstate 14-552
T2 sequence (Q06187 whole entry): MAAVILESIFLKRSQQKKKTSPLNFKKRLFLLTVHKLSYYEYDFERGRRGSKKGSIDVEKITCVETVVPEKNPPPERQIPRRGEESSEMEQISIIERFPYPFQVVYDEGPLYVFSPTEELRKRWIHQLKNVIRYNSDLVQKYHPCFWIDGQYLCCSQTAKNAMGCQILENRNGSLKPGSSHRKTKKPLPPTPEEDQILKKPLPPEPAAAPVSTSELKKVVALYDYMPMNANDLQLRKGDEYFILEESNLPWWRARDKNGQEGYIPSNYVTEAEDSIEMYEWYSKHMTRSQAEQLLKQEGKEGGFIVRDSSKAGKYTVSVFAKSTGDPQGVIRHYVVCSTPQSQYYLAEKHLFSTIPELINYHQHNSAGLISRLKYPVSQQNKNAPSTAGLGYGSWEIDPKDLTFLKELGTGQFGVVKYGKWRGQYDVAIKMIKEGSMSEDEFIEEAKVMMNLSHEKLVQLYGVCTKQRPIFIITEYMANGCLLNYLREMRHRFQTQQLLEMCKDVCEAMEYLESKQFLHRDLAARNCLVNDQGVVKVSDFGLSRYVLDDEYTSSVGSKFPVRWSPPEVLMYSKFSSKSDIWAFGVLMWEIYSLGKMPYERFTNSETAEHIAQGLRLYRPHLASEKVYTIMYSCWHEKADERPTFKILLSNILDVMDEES

T1 sequence (Q06187 whole entry): as above

| IC50 (pBTK) [nM] | IC50 (BTK) [nM] | SMILES |
| --- | --- | --- |
| 500 to 1500 | < 10 | Cc1cc(-c2ncnc3cc(-c4cn[nH]c4)[nH]c23)ccc1CNC(=O)c1ncc(C(C)(C)C)s1 [Example I-41, N-(4-(6-(1H-pyrazol-4-yl)-5H-pyrrolo[3,2-d]pyrimidin-4-yl)-2-methylbenzyl)-5-(tert-butyl)thiazole-2-carboxamide] |
| 1500 to 10000 | < 10 | Cc1cc(-c2ncnc3[nH]ccc23)ccc1C(C)NC(=O)c1cc2c(s1)CCCC2 (stereo not shown) [Example I-78, N-(1-(2-methyl-4-(7H-pyrrolo[2,3-d]pyrimidin-4-yl)phenyl)ethyl)-4,5,6,7-tetrahydrobenzo[b]thiophene-2-carboxamide] |
| > 10000 | < 10 | CC(C)(C)c1csc(C(=O)NC2CCCc3cc(-c4ncnc5[nH]ncc45)ccc32)n1 (stereo not shown) [Example I-98, N-(6-(1H-pyrazolo[3,4-d]pyrimidin-4-yl)-1,2,3,4-tetrahydronaphthalen-1-yl)-4-(tert-butyl) thiazole-2-carboxamide] |
|  | 10 to 99 | Cc1cc(-c2ncnc3cc[nH]c23)ccc1C(C)NC(=O)c1cc2c(s1)CCCC2 (stereo not shown) [Example I-123, N-(1-(2-methyl-4-(5H-pyrrolo[3,2-d]pyrimidin-4-yl)phenyl)ethyl)-4,5,6,7-tetrahydrobenzo[b]thiophene-2-carboxamide] |
|  | 10 to 99 | O=C(NC1CCCc2cc(-c3ncnc4[nH]ncc34)ccc21)c1ccc(C(F)(F)F)cc1 (stereo not shown) [Example I-97, N-(6-(1H-pyrazolo[3,4-d]pyrimidin-4-yl)-1,2,3,4-tetrahydronaphthalen-1-yl)-4-(trifluoromethyl)benzamide] |
|  | < 10 | Cc1cc(-c2ncnc3[nH]c(-c4cnn5c4CNCC5)cc23)ccc1CNC(=O)c1cnc(C(C)(C)C)s1 [Example I-76, 2-(tert-butyl)-N-(2-methyl-4-(6-(4,5,6,7-tetrahydropyrazolo[1,5-a]pyrazin-3-yl)-7H-pyrrolo[2,3-d]pyrimidin-4-yl)benzyl)thiazole-5-carboxamide hydrochloride] |
|  | 10 to 99 | O=C(NC1CCCc2cc(-c3ncnc4[nH]ccc34)ccc21)c1nc2c(s1)CCCC2 (stereo not shown) [Example I-17, N-(6-(7H-pyrrolo[2,3-d]pyrimidin-4-yl)-1,2,3,4-tetrahydronaphthalen-1-yl)-4,5,6,7-tetrahydrobenzo[d]thiazole-2-carboxamide] |
|  | 1000 to 10000 | O=C(NC1CCCc2cc(-c3ncnc4[nH]ncc34)ccc21)c1ccc(C(F)(F)F)cn1 (stereo not shown) [Example I-147, N-(6-(1H-pyrazolo[3,4-d]pyrimidin-4-yl)-1,2,3,4-tetrahydronaphthalen-1-yl)-5-(trifluoromethyl)picolinamide] |
|  | < 10 | Cc1cc(-c2ncnc3[nH]ncc23)ccc1C(C)NC(=O)c1cc2c(s1)CCCC2 (stereo not shown) [Example I-121, N-(1-(2-methyl-4-(1H-pyrazolo[3,4-d]pyrimidin-4-yl)phenyl)ethyl)-4,5,6,7-tetrahydrobenzo[b]thiophene-2-carboxamide] |
|  | 1000 to 10000 | Cc1c(-c2ncnc3[nH]ccc23)ccc2c1CCCC2NC(=O)c1ccc(C(C)(C)C)cc1 (stereo not shown) [Compound I-155] |
|  | 10 to 99 | Cc1cc(-c2ncnc3c2cc(-c2cn(C)nc2C)n3C)ccc1CNC(=O)c1cnc(C(C)(C)C)s1 [Example I-28, 2-(tert-butyl)-N-(4-(6-(1,3-dimethyl-1H-pyrazol-4-yl)-7-methyl-7H-pyrrolo[2,3-d]pyrimidin-4-yl)-2-methylbenzyl)thiazole-5-carboxamide] |
|  | 100 to 999 | O=C(NCc1ncc(-c2ncnc3[nH]ncc23)cc1F)c1cc2c(s1)CCCC2 [Example I-109, N-((3-fluoro-5-(1H-pyrazolo[3,4-d]pyrimidin-4-yl)pyridin-2-yl)methyl)-4,5,6,7-tetrahydrobenzo[b]thiophene-2-carboxamide] |
|  | 10 to 99 | CC(C)(C)c1ncc(C(=O)NC(CO)c2ccc(-c3ncnc4cc(C5=CCS(=O)(=O)CC5)[nH]c34)cc2)s1 (stereo not shown) [Example I-29, 2-(tert-butyl)-N-(1-(4-(6-(1,1-dioxido-3,6-dihydro-2H-thiopyran-4-yl)-5H-pyrrolo[3,2-d]pyrimidin-4-yl)phenyl)-2-hydroxyethyl)thiazole-5-carboxamide] |
|  | 100 to 999 | O=C(NCc1ccc(-c2ncnc3[nH]ccc23)cc1)c1ccc(C(F)(F)F)cc1 [Example I-66, N-(4-(7H-pyrrolo[2,3-d]pyrimidin-4-yl)benzyl)-4-(trifluoromethyl)benzamide] |
|  | 100 to 999 | Cc1nc(C(=O)NC2CCCc3cc(-c4ncnc5[nH]ncc45)ccc32)sc1C (stereo not shown) [Example I-95, N-(6-(1H-pyrazolo[3,4-d]pyrimidin-4-yl)-1,2,3,4-tetrahydronaphthalen-1-yl)-4,5-dimethylthiazole-2-carboxamide] |
|  | 100 to 999 | Cc1cc(-c2ncnc3sc4c(c23)CCC4)ccc1CNC(=O)c1cnc(C(C)(C)C)s1 [Example I-141] |

| IC50 (pBTK) [nM] | IC50 (BTK) [nM] | SMILES |
| --- | --- | --- |
|  | 10 to 99 | O=C(N[C@@H]1CCCc2cc(-c3ncnc4[nH]ncc34)ccc21)c1cc2c(s1)CCCC2 [Example I-86, (R)—N-(6-(1H-Pyrazolo[3,4-d]pyrimidin-4-yl)-1,2,3,4-tetrahydronaphthalen-1-yl)-4,5,6,7-tetrahydrobenzo[b]thiophene-2-carboxamide] |
|  | 10 to 99 | Cc1cc(-c2ncnc3[nH]ncc23)cnc1CNC(=O)c1cc2c(s1)CCCC2 [Example I-125, N-((3-methyl-5-(1H-pyrazolo[3,4-d]pyrimidin-4-yl)pyridin-2-yl)methyl)-4,5,6,7-tetrahydrobenzo[b]thiophene-2-carboxamide] |
|  | 100 to 999 | O=C(N[C@@H]1CCCc2cc(-c3ncnc4[nH]ncc34)ccc21)[C@H]1CC[C@H](C(F)(F)F)CC1 [Example I-105, trans-N—((R)-6-(1H-pyrazolo[3,4-d]pyrimidin-4-yl)-1,2,3,4-tetrahydronaphthalen-1-yl)-4-(trifluoromethyl)cyclohexanecarboxamide] |
|  | < 10 | Cc1cc(-c2ncnc3nc(N4CC(N(C)C)C4)[nH]c23)ccc1CNC(=O)c1cnc(C(C)(C)C)s1 [Example I-53, 2-(tert-butyl)-N-(4-(8-(3-(dimethylamino)azetidin-1-yl)-7H-purin-6-yl)-2-methylbenzyl)thiazole-5-carboxamide] |
|  | < 10 | CC(NC(=O)c1cnc(C(C)(C)C)s1)c1ccc(-c2ncnc3cc(-c4cnn(C)c4)[nH]c23)cc1 (stereo not shown) [Example I-114, 2-(tert-butyl)-N-(1-(4.-(6-(1-methyl-1H-pyrazol-4-yl)-5H-pyrrolo[3,2-d]pyrimidin-4-yl)phenyl)ethyl)thiazole-5-carboxamide] |
|  | 100 to 999 | O=C(NC1CCCc2cc(-c3ncnc4[nH]ncc34)ccc21)c1ccc(Cl)c(F)c1 (stereo not shown) [Example I-90, N-(6-(1H-pyrazolo[3,4-d]pyrimidin-4-yl)-1,2,3,4-tetrahydronaphthalen-1-yl)-4-chloro-3-fluorobenzamide] |
|  | 100 to 999 | CC(C)(C)c1ccc(C(=O)NCc2ncc(-c3ncnc4[nH]ccc34)cc2Cl)nc1 [Example I-12] |
|  | < 10 | CC(C)OC1CN(C(=O)NC2CCCc3cc(-c4ncnc5[nH]c(-c6cnn(C)c6)cc45)ccc32)C1 (stereo not shown) [Example I-158, 3-isopropoxy-N-(6-(6-(1-methyl-1H-pyrazol-4-yl)-7H-pyrrolo[2,3-d]pyrimidin-4-yl)-1,2,3,4-tetrahydronaphthalen-1-yl)azetidine-1-carboxamide] |
|  | < 10 | Cn1cc(-c2cc3c(-c4ccc5c(c4)CCCCC5NC(=O)N4CCC(C(C)(C)C)C4)ncnc3[nH]2)cn1 (stereo not shown) [Example I-162, 3-(tert-butyl)-N-(2-(6-(1-methyl-1H-pyrazol-4-yl)-7H-pyrrolo[2,3-d]pyrimidin-4-yl)-6,7,8,9-tetrahydro-5H-benzo[7]annulen-5-yl)pyrrolidine-1-carboxamide] |
|  | 100 to 999 | C[C@@H](NC(=O)c1nc2c(s1)CCCC2)c1ccc(-c2ncnc3[nH]ccc23)cc1 [Example I-74, (R)—N-(1-(4-(7H-pyrrolo[2,3-d]pyrimidin-4-yl)phenyl)ethyl)-4,5,6,7-tetrahydrobenzo[d]thiazole-2-carboxamide] |
|  | 100 to 999 | O=C(N[C@@H]1CCCc2cc(-c3ncnc4[nH]ccc34)ccc21)c1cc2c(s1)CCCC2 [Example I-81, (R)—N-(6-(7H-Pyrrolo[2,3-d]pyrimidin-4-yl)-1,2,3,4-tetrahydronaphthalen-1-yl)-4,5,6,7-tetrahydrobenzo[b]thiophene-2-carboxamide] |
|  | < 10 | Cc1nc(-c2ccnc3[nH]ncc23)ccc1CNC(=O)c1cc2c(s1)CCCC2 [Example I-118, N-((2-methyl-6-(1H-pyrazolo[3,4-b]pyridin-4-yl)pyridin-3-yl)methyl)-4,5,6,7-tetrahydrobenzo[b]thiophene-2-carboxamide] |
|  | 10 to 99 | CC(C)(C)c1ccc(C(=O)NC2CCCc3cc(-c4ncnc5[nH]ncc45)ccc32)cc1 (stereo not shown) [Example I-88, N-(6-(1H-pyrazolo[3,4-d]pyrimidin-4-yl)-1,2,3,4-tetrahydronaphthalen-1-yl)-4-(tert-butyl)benzamide] |
|  | 10 to 99 | Cc1cc(-c2ccnc3[nH]ccc23)cnc1CNC(=O)c1cc2c(s1)CCCC2 [Example I-126, N-((3-methyl-5-(1H-pyrrolo[2,3-b]pyridin-4-yl)pyridin-2-yl)methyl)-4,5,6,7-tetrahydrobenzo[b]thiophene-2-carboxamide] |
|  | 1000 to 10000 | CC(C)(C)c1ncc(C(=O)N[C@H]2CCCc3cc(-c4ccnc5[nH]ncc45)cnc32)s1 [Example I-152, (S)—N-(3-(1H-pyrazolo[3,4-b]pyridin-4-yl)-5,6,7,8-tetrahydroquinolin-8-yl)-2-(tert-butyl)thiazole-5-carboxamide] |
